Earlier results, collected in US20080317725A1, “COMPOSITIONS AND METHODS OF TREATING CHRONIC KIDNEY DISEASE” (priority 2007, published 2008).

What was measured:
[1] = administered in large doses
[2] = tested on: subjects undergoing dialysis; settings: vitamin A intake of about 15,000 IU

## CC(=O)N[C@@H](CS)C(=O)O [NAC, N-acetyl cysteine]
[1]
  side effect: cause nausea

## C=C1CC[C@H](O)C/C1=C/C=C1\CCC[C@]2(C)[C@@H]([C@H](C)/C=C/[C@H](C)C(C)C)CC[C@@H]12 [vitamin D2, ergocalciferol]
humans
  vitamin D activity in humans relative to vitamin D3: about 1.7 times less than D3

## vitamin A
[2]
  toxicity of vitamin A intake: produce vitamin A toxicity and correlate with hypercalcaemia
